Laboratory results taken from patent US8598200B2, “KAT II inhibitors” (Pfizer Inc., priority 2010, dated 2013).

Molecular target: human KAT II (hKAT II) enzyme (Homo sapiens (Human), UniProt Q8N5Z0)
Test: KAT II Inhibition Spectra Assay
Format: biochemical
Settings: decrease in OD370, L-kynurenine substrate, 37° C. for 15-20 h; values marked ^1 are the average of 2 IC50 determinations; read-out: KATII IC50 (nM; single determination unless otherwise indicated)
Protocol: Formation of kynurenic acid (KYNA) is indirectly assessed by a decrease in light absorbance at 370 nm (OD370) as the L-kynurenine (KYN) substrate is converted by the human KAT II (hKAT II) enzyme into KYNA. An inhibitor would therefore inhibit the decrease in OD370.
The protocol was performed by placing the following reagents into a Costar 384 well black plate (30 μL total assay volume/well): • 10 μL of 3× concentrated compound; • 10 μL of 3× concentrated substrate mix (BGG (Sigma G-5009); 3 mM L-Kynurenine in 150 mM Tris Acetate (Sigma K3750); 3 mM α-ketoglutaric acid in 150 mM Tris Acetate (Sigma K2010); and 210 μM pyridoxal 5-phosphate (PLP) in 150 mM Tris Acetate (Sigma 9255)); and • 10 μL of 3× concentrated enzyme (15 nM enzyme in 150 mM Tris Acetate with 0.3% bovine serum).
Plates were sealed and incubated at 37° C. for 15-20 h before reading OD370 on a SpectraMax Plus plate reader. IC50s were generated by comparing the efficacy of compounds across a concentration range to inhibit a reduction in the OD370 value relative to assay wells with DMSO added in place of concentrated compound. Biological data for the Examples may be found in Table 2.

Sequence of human KAT II (hKAT II) enzyme (Q8N5Z0 30-425): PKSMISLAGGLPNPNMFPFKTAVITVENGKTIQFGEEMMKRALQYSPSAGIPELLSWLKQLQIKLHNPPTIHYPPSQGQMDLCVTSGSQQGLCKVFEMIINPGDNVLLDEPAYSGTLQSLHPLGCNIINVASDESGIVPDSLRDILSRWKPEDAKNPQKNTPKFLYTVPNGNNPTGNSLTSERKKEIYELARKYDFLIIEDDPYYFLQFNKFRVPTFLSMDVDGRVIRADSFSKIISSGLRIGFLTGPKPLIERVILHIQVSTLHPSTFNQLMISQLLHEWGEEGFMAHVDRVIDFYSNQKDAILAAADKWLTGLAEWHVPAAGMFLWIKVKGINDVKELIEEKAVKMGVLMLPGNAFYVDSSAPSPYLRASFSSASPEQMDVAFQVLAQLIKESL

IC50 [nM]	SMILES
182	N[C@H]1Cc2nn(Cc3ccccc3)cc2N(O)C1=O [Example 13, (6S)-6-amino-2-benzyl-4-hydroxy-2,4,6,7-tetrahydro-5H-pyrazolo[4,3-b]pyridin-5-one]
40.7	Cn1nc2c(c1Cc1ccccc1C(F)(F)F)C[C@H](N)C(=O)N2O [Example 26, (5S)-5-amino-7-hydroxy-2-methyl-3-[2-(trifluoromethyl)benzyl]-2.4,5,7-tetrahydro-6H-pyrazolo[3,4-b] pyridin-6-one]
117	N[C@H]1Cc2cn(Cc3ccc4ccccc4c3)nc2N(O)C1=O [Example 9, (5S)-5-amino-7-hydroxy-2-(2-naphthylmethyl)-2,4,5,7-tetrahydro-6H-pyrazolo[3,4-b]pyridin-6-one]
11.5	Cn1nc2c(c1Cc1ccccc1)C[C@H](N)C(=O)N2O [Example 3, (5S)-5-Amino-3-benzyl-7-hydroxy-2-methyl-2,4,5,7-tetrahydro-6H-pyrazolo[3,4-b]pyridin-6-one]
24.3	N[C@H]1Cc2cn(-c3ccccc3)nc2N(O)C1=O [Example 14, (5S)-5-amino-7-hydroxy-2-phenyl-2,4,5,7-tetrahydro-6H-pyrazolo[3,4-b]pyridin-6-one]
42.2	Cn1nc2c(c1Cc1cccc(C(F)(F)F)c1)C[C@H](N)C(=O)N2O [Example 25, (5S)-5-amino-7-hydroxy-2-methyl-3-[3-(trifluoromethyl)benzyl]-2,4,5,7-tetrahydro-6H-pyrazolo[3,4-b]pyridin-6-one]
59.4	N[C@H]1Cc2cn(Cc3ccccc3)nc2N(O)C1=O [Example 1, (5S)-5-Amino-2-benzyl-7-hydroxy-2,4,5,7-tetrahydro-6H-pyrazolo[3,4-b]pyridin-6-one]
63.7	Cn1nc(Cc2ccccc2)c2c1N(O)C(=O)[C@@H](N)C2 [Example 2, (5S)-5-Amino-3-benzyl-7-hydroxy-1-methyl-1,4,5,7-tetrahydro-6H-pyrazolo[3,4-b]pyridin-6-one]
8.93	COc1cccc(Cn2cc3c(n2)N(O)C(=O)[C@@H](N)C3)c1 [Example 11, (5S)-5-amino-7-hydroxy-2-(3-methoxybenzyl)-2,4,5,7-tetrahydro-6H-pyrazolo[3,4-b]pyridin-6-one]
81.3	N[C@H]1Cc2cn(C3CCC3)nc2N(O)C1=O [Example 19, (5S)-5-amino-2-cyclobutyl-7-hydroxy-2,4,5,7-tetrahydro-6H-pyrazolo[3,4-b]pyridin-6-one]
38.8	N[C@H]1Cc2cn(-c3ccccc3C(F)(F)F)nc2N(O)C1=O [Example 28, (5S)-5-amino-7-hydroxy-2-[2-(trifluoromethyl)phenyl]-2,4,5,7-tetrahydro-6H-pyrazolo[3,4-b]pyridin-6-one]
24.3	CCn1nc2c(c1Cc1ccccc1)C[C@H](N)C(=O)N2O [Example 23, (5S)-5-amino-3-benzyl-2-ethyl-7-hydroxy-2.4,5,7-tetrahydro-6H-pyrazolo[3,4-b]pyridin-6-one]
50.2	COc1ccccc1Cn1cc2c(n1)N(O)C(=O)[C@@H](N)C2 [Example 10, (5S)-5-amino-7-hydroxy-2-(2-methoxybenzyl)-2,4,5,7-tetrahydro-6H-pyrazolo[3,4-b]pyridin-6-one]
440	COc1ccc(Cc2nn(C)c3c2C[C@H](N)C(=O)N3O)cc1 [Example 21]
36	N[C@H]1Cc2cn(Cc3cccc4ccccc34)nc2N(O)C1=O [Example 8, (5S)-5-amino-7-hydroxy-2-(1-naphthylmethyl)-2,4,5,7-tetrahydro-6H-pyrazolo[3,4-b]pyridin-6-one]
74.7	N[C@H]1Cc2cn(-c3cccc(C(F)(F)F)c3)nc2N(O)C1=O [Example 7, (5S)-5-Amino-7-hydroxy-2-[3-(trifluoromethyl)phenyl]-2,4,5,7-tetrahydro-6H-pyrazolo[3,4-b]pyridin-6-one]
37	Cn1nc2c(c1Cc1ccc(C(F)(F)F)cc1)C[C@H](N)C(=O)N2O [Example 27, (5S)-5-amino-7-hydroxy-2-methyl-3-[4-(trifluoromethyl)benzyl]-2,4,5,7-tetrahydro-6H-pyrazolo[3,4-6]pyridin-6-one]
22.5	N[C@H]1Cc2c(cnn2Cc2ccccc2)N(O)C1=O [Example 4, (6S)-6-Amino-1-benzyl-4-hydroxy-1,4,6,7-tetrahydro-5H-pyrazolo[4,3-b]pyridin-5-one]
65.6	COc1cccc(Cc2nn(C)c3c2C[C@H](N)C(=O)N3O)c1 [Example 22, (5S)-5-amino-7-hydroxy-3-(3-methoxybenzyl)-1-methyl-1,4,5,7-tetrahydro-6H-pyrazolo[3,4-b]pyridin-6-one]
28.3	COc1ccc(Cn2cc3c(n2)N(O)C(=O)[C@@H](N)C3)cc1 [Example 15, (5S)-5-amino-7-hydroxy-2-(4-methoxybenzyl)-2,4,5,7-tetrahydro-6H-pyrazolo[3,4-b]pyridin-6-one]
81.6	Cc1c2c(nn1Cc1ccccc1)N(O)C(=O)[C@@H](N)C2 [Example 12, (5S)-5-amino-2-benzyl-7-hydroxy-3-methyl-2,4,5,7-tetrahydro-6H-pyrazolo[3,4-b]pyridin-6-one]
42.7	N[C@H]1Cc2c(c(C(F)(F)F)nn2Cc2ccccc2)N(O)C1=O [Example 5, (6S)-6-Amino-1-benzyl-4-hydroxy-3-(trifluoromethyl)-1,4,6,7-tetrahydro-5H-pyrazolo[4,3-b]pyridin-5-one]
329	Cn1ncc2c1N(O)C(=O)[C@@H](N)C2 [Example 18, (5S)-5-amino-7-hydroxy-1-methyl-1,4,5,7-tetrahydro-6H-pyrazolo[3,4-b]pyridin-6-one]
31.6	N[C@H]1Cc2cn(-c3ccc(C(F)(F)F)cc3)nc2N(O)C1=O [Example 29, (5S)-5-amino-7-hydroxy-2-[4-(trifluoromethyl)phenyl]-2,4,5,7-tetrahydro-6H-pyrazolo[3,4-b]pyridin-6-one]
153	CC(C)n1cc2c(n1)N(O)C(=O)[C@@H](N)C2 [Example 20, (5S)-5-amino-7-hydroxy-2-isopropyl-2,4,5,7-tetrahydro-6H-pyrazolo[3,4-b]pyridin-6-one]
43.6	N[C@H]1Cc2cn(Cc3ccc(OC(F)(F)F)cc3)nc2N(O)C1=O [Example 6, (5S)-5-Amino-7-hydroxy-2-[4-(trifluoromethoxy)benzyl]-2,4,5,7-tetrahydro-6H-pyrazolo[3,4-b]pyridin-6-one]
63	CC(C)n1nc2c(c1Cc1ccccc1)C[C@H](N)C(=O)N2O [Example 24, (5S)-5-amino-3-benzyl-7-hydroxy-2-isopropyl-2,4,5,7-tetrahydro-6H-pyrazolo[3,4-b]pyridin-6-one]
2010	Cc1c2c(nn1-c1ccccc1)C[C@H](N)C(=O)N2O [Example 17, (6S)-6-amino-4-hydroxy-3-methyl-2-phenyl-2,4,6,7-tetrahydro-5H-pyrazolo[4,3-b]pyridin-5-one]
